# Measured values from US7432392B2, “Ester derivatives and medical use thereof” (Japan Tobacco Inc., priority 2003, dated 2008).
# Molecular target: T1, Microsomal triglyceride transfer protein (MTP) from bovine liver (Bos taurus, UniProt P55156)
# T1 construct: the purified MTP was used for the test; from tissue; host or cells: bovine liver
# T1 sequence (P55156 12-887): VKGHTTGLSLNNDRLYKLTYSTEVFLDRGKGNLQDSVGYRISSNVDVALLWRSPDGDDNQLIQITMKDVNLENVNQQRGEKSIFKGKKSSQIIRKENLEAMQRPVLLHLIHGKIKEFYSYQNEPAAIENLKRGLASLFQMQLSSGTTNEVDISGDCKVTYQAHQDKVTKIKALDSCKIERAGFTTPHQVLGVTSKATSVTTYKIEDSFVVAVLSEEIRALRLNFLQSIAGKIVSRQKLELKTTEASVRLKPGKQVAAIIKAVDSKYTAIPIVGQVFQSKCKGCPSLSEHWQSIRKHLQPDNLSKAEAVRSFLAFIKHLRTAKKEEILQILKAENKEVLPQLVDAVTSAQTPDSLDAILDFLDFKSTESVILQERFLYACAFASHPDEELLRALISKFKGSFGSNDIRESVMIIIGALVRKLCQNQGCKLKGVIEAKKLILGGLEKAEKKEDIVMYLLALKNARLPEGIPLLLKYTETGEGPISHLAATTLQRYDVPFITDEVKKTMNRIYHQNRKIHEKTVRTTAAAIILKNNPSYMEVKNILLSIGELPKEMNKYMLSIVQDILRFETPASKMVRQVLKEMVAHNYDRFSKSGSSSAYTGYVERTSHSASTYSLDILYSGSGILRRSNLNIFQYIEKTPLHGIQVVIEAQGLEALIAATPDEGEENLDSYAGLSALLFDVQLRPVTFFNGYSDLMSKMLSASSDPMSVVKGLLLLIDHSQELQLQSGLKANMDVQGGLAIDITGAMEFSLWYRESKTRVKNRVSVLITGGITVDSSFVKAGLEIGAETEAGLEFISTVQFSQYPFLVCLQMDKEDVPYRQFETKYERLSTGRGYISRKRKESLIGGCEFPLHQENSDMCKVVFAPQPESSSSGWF
# T1 sequence (P05307 21-510 partner): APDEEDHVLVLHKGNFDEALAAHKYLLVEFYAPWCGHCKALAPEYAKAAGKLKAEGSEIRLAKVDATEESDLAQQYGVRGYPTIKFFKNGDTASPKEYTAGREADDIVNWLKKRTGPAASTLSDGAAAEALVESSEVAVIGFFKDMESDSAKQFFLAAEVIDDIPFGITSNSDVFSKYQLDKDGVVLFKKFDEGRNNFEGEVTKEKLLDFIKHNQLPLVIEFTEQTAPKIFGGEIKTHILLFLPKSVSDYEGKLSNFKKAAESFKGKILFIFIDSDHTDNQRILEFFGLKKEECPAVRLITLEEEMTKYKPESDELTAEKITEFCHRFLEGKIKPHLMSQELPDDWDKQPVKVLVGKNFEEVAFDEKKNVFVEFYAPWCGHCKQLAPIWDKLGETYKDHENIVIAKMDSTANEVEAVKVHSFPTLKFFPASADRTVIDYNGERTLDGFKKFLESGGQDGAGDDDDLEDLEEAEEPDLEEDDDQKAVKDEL
# Experiment: Inhibition of interliposomal triglyceride (TG) transfer activity by MTP
# Assay type: biochemical
# Conditions: MTP-mediated TG transfer between donor and acceptor liposomes, 37° C., one hour
# Procedure: Microsomal triglyceride transfer protein (MTP) from bovine liver was partially purified in such a way described below. A buffer (50 mM Tris, 250 mM sucrose, 1 mM EDTA, 0.02% NaN3 (pH 7.4)) for making a homogenate preparation was added to bovine liver, and the mixture was homogenated under ice-cooling, then centrifuged at 10,000×g (4° C., 30 minutes) The supernatant was adjusted to pH 5.1 with hydrochloric acid, and stirred for 30 minutes. The solution was further centrifuged at 10,000×g (4° C., 30 minutes), and 1 mM Tris buffer was added to the precipitated residue, and the mixture was adjusted to pH 8.6 with sodium hydroxide. After addition of 2.7 M ammonium sulfate solution, the mixture was stirred for 30 minutes, then centrifuged at 10,000×g (4° C., 40 minutes). The resulting supernatant was served as a crude extraction fraction of MTP and stored at −80° C. under freezing. In its practical use, the crude extraction fraction of MTP was purified by column chromatography on diethylaminoethyl (DEAE) Sepharose using FPLC (Fast Performance Liquid Chromatography) system, and the purified MTP was used for the test.
# Small unilamellar-vesicle (SUV) liposome (donor, 0.25 mol % triolein, 5 mol % cardiolipin) labeled with ^14C-triolein and non-labeled SUV liposome (acceptor, 0.25 mol % triolein) were prepared. A fixed amount of donor and acceptor, and MTP were mixed with a sample dissolved in DMSO or with DMSO. The mixture was incubated in a 15 mM Tris hydrochloride buffer (pH 7.4) containing 40 mM sodium chloride, 1 mM EDTA (ethylenediaminetetraacetic acid), 0.02% NaN3 and 0.5% bovine serum albumin at 37° C. for one hour. After completion of the incubation, a suspension of DEAE cellulose (50% v/v) in 15 mM Tris hydrochloride buffer (pH 7.4) was added to the above solution, and the mixture was centrifuged to separate the donor and the acceptor. The radioactivity in the acceptor was measured by liquid scintillation counter. The value obtained by subtracting the radioactivity in the blank from the amount of radioactivity in the acceptor of a DMSO group was determined as MTP-mediated TG transfer activity, and it was compared with the value obtained by subtracting the radioactivity in the blank from the radioactivity in a sample group. The blank was prepared by adding 15 mM Tris-HCl buffer (pH 7.4) in place of MTP. Inhibition rate (%) was calculated from the values obtained according to the following equation.
# Inhibition rate (%)=100×(1 minus ((radioactivity of sample group minus radioactivity of blank group)/(radioactivity of DMSO group minus radioactivity of blank group))). 50% Inhibition rate (IC50) was determined on the basis of the above equation.
row,IC50 [nM],Compound
1,< 10,CCOC(=O)C(COC(=O)Oc1ccc(NC(=O)c2ccccc2-c2ccc(C(F)(F)F)cc2)c(C(=O)N(C)C)c1)(C(=O)OCC)c1ccccc1 [Example 2-4]
2,< 10,CCOC(=O)C(COC(=O)Oc1c(F)cc(NC(=O)c2cccc(F)c2-c2ccc(C(F)(F)F)cc2)c(C(=O)N(C)C)c1F)(C(=O)OCC)c1cccs1 [Example 2-33]
3,< 10,CCOC(=O)C(CCC(=O)Oc1c(F)cc(NC(=O)c2ccccc2-c2ccc(C(F)(F)F)cc2)c(C(=O)N(C)C)c1F)(C(=O)OCC)c1cccs1 [Example 3-20]
4,100 to 1000,CCOC(=O)C(COC(=O)Oc1c(F)cc(NC(=O)c2ccccc2-c2ccc(C(F)(F)F)cc2)c(C(=O)N2CCC(O)CC2)c1F)(C(=O)OCC)c1cccs1 [Example 2-47]
5,< 10,CCOC(=O)C(COC(=O)Oc1c(F)cc(NC(=O)c2cccc(C)c2-c2ccc(C(F)(F)F)cc2)c(C(=O)N(C)C)c1F)(C(=O)OCC)c1cccs1 [Example 2-34]
6,100 to 1000,CCNC(=O)C(CCCCC(=O)Oc1c(F)cc(NC(=O)c2ccccc2-c2ccc(C(F)(F)F)cc2)c(C(=O)N(C)C)c1F)(C(=O)NCC)c1cccs1 [Example 3-15]
7,< 10,CCOC(=O)C(COC(=O)Oc1ccc(NC(=O)c2ccccc2-c2ccc(C(F)(F)F)cc2)c(C(=O)N2CCCC2)c1)(C(=O)OCC)c1ccccc1 [Example 2-14]
8,< 10,CCOC(=O)C(COC(=O)Oc1c(F)cc(NC(=O)c2ccccc2-c2ccc(C(F)(F)F)c(F)c2)c(C(=O)N(C)C)c1F)(C(=O)OCC)c1cccs1 [Example 2-40]
9,< 10,CCOC(=O)C(CCC(=O)Oc1cc(C(=O)N(C)C)c(NC(=O)c2ccccc2-c2ccc(C(F)(F)F)cc2)cc1F)(C(=O)OCC)c1ccccc1 [Example 3-6]
10,< 10,CCNC(=O)C(COCC(=O)Oc1ccc(NC(=O)c2ccccc2-c2ccc(C(F)(F)F)cc2)c(C(=O)N(C)C)c1)(C(=O)NCC)c1ccccc1 [Example 3-12]
11,< 10,CCOC(=O)C(COC(=O)Oc1cc(C(=O)N(C)C)c(NC(=O)c2ccccc2-c2ccc(C(F)(F)F)cc2)cc1C)(C(=O)OCC)c1ccccc1 [Example 2-15]
12,< 10,CCOC(=O)C(COC(=O)Oc1ccc(NC(=O)c2cnc(N(C)C)nc2-c2ccc(C(F)(F)F)cc2)c(C(=O)N(C)C)c1)(C(=O)OCC)c1ccccc1 [Example 2-28]
13,< 10,CCOC(=O)C(COC(=O)Cc1ccc(NC(=O)c2ccc(C)cc2-c2ccc(C(F)(F)F)cc2)c(OC(C)=O)c1)(C(=O)OCC)c1ccccc1 [Example 1-5]
14,< 10,CCCC(=O)Oc1cc(CC(=O)OCC(C(=O)OCC)(C(=O)OCC)c2ccccc2)ccc1NC(=O)c1ccc(C)cc1-c1ccc(C(F)(F)F)cc1 [Example 1-7]
15,< 10,"CCOC(=O)C(COC(=O)Oc1cc(C(=O)N(C)C)c(NC(=O)c2ccccc2-c2ccc(C(F)(F)F)cc2)cc1F)(C(=O)OCC)c1ccccc1 [Example 2, 2-{5-Dimethylcarbamoyl-2-fluoro-4-[(4′-trifluoromethyl-biphenyl-2-carbonyl)amino]phenoxycarbonyloxymethyl}-2-phenylmalonic acid diethyl ester]"
16,< 10,"CCOC(=O)C(COC(=O)Oc1ccc2c(c1)N(C(C)C)C(=O)CN2C(=O)c1ccccc1-c1ccc(C(F)(F)F)cc1)(C(=O)OCC)c1ccccc1 [Example 2-2, 2-[4-Isopropyl-3-oxo-1-(4′-trifluoromethylbiphenyl-2-carbonyl)-1,2,3,4-tetrahydroquinoxalin-6-yloxycarbonyloxymethyl]-2-phenylmalonic acid diethyl ester]"

row,IC50 [nM],Compound
1,10 to 100,CCOC(=O)C(COC(=O)Oc1c(F)cc(NC(=O)c2ccccc2-c2ccc(C(F)(F)F)cc2)c(C(=O)N(C)CC(=O)OC)c1F)(C(=O)OCC)c1cccs1 [Example 2-42]
2,< 10,CCNC(=O)C(COC(=O)Oc1ccc(NC(=O)c2ccccc2-c2ccc(C(F)(F)F)cc2)c(C(=O)N(C)C)c1)(C(=O)NCC)c1ccccc1 [Example 2-10]
3,< 10,CCOC(=O)C(CCC(=O)Oc1c(F)cc(NC(=O)c2ccc(C)cc2-c2ccc(C(F)(F)F)cc2)c(C(=O)N(C)C)c1F)(C(=O)OCC)c1ccccc1 [Example 3-22]
4,10 to 100,CCOC(=O)C(COC(=O)Oc1c(F)cc(NC(=O)c2ccc(C)cc2-c2ccc(C(F)(F)F)cc2)c(C(=O)N2CCOCC2)c1F)(C(=O)OCC)c1cccs1 [Example 2-43]
5,100 to 1000,CCNC(=O)C(COC(=O)Oc1cc(C(=O)N(C)C)c(NC(=O)c2ccccc2-c2ccc(C(F)(F)F)cc2)cc1F)(C(=O)NCC)c1ccccc1 [Example 2-11]
6,< 10,CCOC(=O)C(COC(=O)Oc1ccc(NC(=O)c2ccc(C)cc2-c2ccc(C(F)(F)F)cc2)c(C(=O)N(C)C)c1)(C(=O)OCC)c1cccs1 [Example 2-9]
7,< 10,CCOC(=O)C(CCC(=O)OCc1ccc(NC(=O)c2ccccc2-c2ccc(C(F)(F)F)cc2)c(C(=O)N(C)C)c1)(C(=O)OCC)c1ccccc1 [Example 3-7]
8,< 10,CCOC(=O)C(CCC(=O)Oc1ccc(N(C)C(=O)c2ccccc2-c2ccc(C(F)(F)F)cc2)c(C(=O)N(C)C)c1)(C(=O)OCC)c1ccccc1 [Example 3-8]
9,< 10,CCOC(=O)C(COC(=O)Oc1c(F)cc(NC(=O)c2ccccc2-c2ccc(C(F)(F)F)cc2)cc1F)(C(=O)OCC)c1cccs1 [Example 2-49]
10,100 to 1000,CCOC(=O)C(COC(=O)Oc1c(F)cc(NC(=O)c2ccccc2-c2ccc(C(F)(F)F)cc2)c(C(=O)N(C)CCO)c1F)(C(=O)OCC)c1cccs1 [Example 2-45]
11,< 10,CCOC(=O)C(COC(=O)Oc1c(F)cc(NC(=O)c2c(C)cccc2-c2ccc(C(F)(F)F)cc2)c(C(=O)N(C)C)c1F)(C(=O)OCC)c1cccs1 [Example 2-39]
12,< 10,CCOC(=O)C(COC(=O)Oc1ccc(NC(=O)c2ccc(C)nc2-c2ccc(C(F)(F)F)cc2)c(C(=O)N(C)C)c1)(C(=O)OCC)c1ccccc1 [Example 2-19]
13,10 to 100,CCNC(=O)C(CCCC(=O)Oc1c(F)cc(NC(=O)c2ccccc2-c2ccc(C(F)(F)F)cc2)c(C(=O)N(C)C)c1F)(C(=O)NCC)c1cccs1 [Example 3-17]
14,10 to 100,CCOC(=O)C(COC(=O)Oc1c(F)cc(NC(=O)c2ccccc2-c2ccc(C(F)(F)F)cc2)c(C(=O)N(C)C)c1F)(C(=O)OCC)c1ccccc1 [Example 2-20]
15,10 to 100,CCN(C)C(=O)C(COC(=O)Oc1c(F)cc(NC(=O)c2ccccc2-c2ccc(C(F)(F)F)cc2)c(C(=O)N(C)C)c1F)(C(=O)N(C)CC)c1ccccc1 [Example 2-31]
